In PubChem BioAssay AID248 (DTP/NCI, 2004):
Values joined by “and” are separate entries in the source; they are usually repeats but may differ in a detail not shown here. Identical values can stand only once. Inconclusive results and toxic doses are left out.

Test system: L1210 leukemia ip in BDF1 mice, survival T/C
Experiment: NCI In Vivo Anticancer Drug Screen. Data for tumor model L1210 Leukemia (intraperitoneal) in B6D2F1 (BDF1) mice
Details: endpoint: mean survival time, higher = longer survival
Method in brief: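 Each compound was tested against a transplantable tumor grown in mice. The endpoint was survival, with treated animals benchmarked against vehicle controls as a simple ratio.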

[1] = dose: 25.0 mg/kg/injection, schedule: Q04DX003 (ip), vehicle: saline
[2] = dose: 50.0 mg/kg/injection, schedule: Q04DX003 (ip), vehicle: saline

CS(=O)(=O)OCC(=O)NCCCNC(=O)COS(C)(=O)=O
T/C (dose: 17.5 mg/kg/injection, schedule: Q01DX013 (ip), vehicle: other): 123 % of control | T/C (dose: 18.8 mg/kg/injection, schedule: Q01DX015 (ip), vehicle: saline): 122 % of control | T/C (dose: 35.0 mg/kg/injection, schedule: Q01DX013 (ip), vehicle: other): 121 % of control | T/C (dose: 54.0 mg/kg/injection, schedule: Q01DX009 (ip), vehicle: saline): 166 % of control | T/C (dose: 75.0 mg/kg/injection, schedule: Q01DX015 (ip), vehicle: saline): 155 % of control | T/C (dose: 80.0 mg/kg/injection, schedule: Q01DX009 (ip), vehicle: saline): 175 % of control | T/C (dose: 120.0 mg/kg/injection, schedule: Q01DX009 (ip), vehicle: saline): 202 % of control | T/C (dose: 150.0 mg/kg/injection, schedule: Q01DX015 (ip), vehicle: saline): 150 % of control | T/C (dose: 180.0 mg/kg/injection, schedule: Q01DX009 (ip), vehicle: saline): 164 % of control and 195 % of control | T/C (dose: 256.0 mg/kg/injection, schedule: Q01DX009 (ip), vehicle: saline): 118 % of control

CN(Cc1ccc(Cl)cc1)C(=O)Nc1cccc(C(F)(F)F)c1
T/C (dose: 25.0 mg/kg/injection, schedule: Q01DX009 (ip), vehicle: Klucel (hydroxypropylcellulose) (HPC)): 96 % of control | T/C (dose: 50.0 mg/kg/injection, schedule: Q01DX009 (ip), vehicle: Klucel (hydroxypropylcellulose) (HPC)): 100 % of control | T/C (dose: 100.0 mg/kg/injection, schedule: Q01DX009 (ip), vehicle: Klucel (hydroxypropylcellulose) (HPC)): 100 % of control and 90 % of control | T/C (dose: 400.0 mg/kg/injection, schedule: Q01DX009 (ip), vehicle: Klucel (hydroxypropylcellulose) (HPC)): 88 % of control

NC1=NC2OC(CO)C(O)C2O1 (stereo not given)
T/C (dose: 100.0 mg/kg/injection, schedule: Q01DX009 (ip), vehicle: saline): 104 % of control | T/C (dose: 100.0 mg/kg/injection, schedule: Q04DX003 (ip), vehicle: Klucel (hydroxypropylcellulose) (HPC)): 100 % of control | T/C (dose: 200.0 mg/kg/injection, schedule: Q01DX009 (ip), vehicle: saline): 95 % of control | T/C (dose: 200.0 mg/kg/injection, schedule: Q04DX003 (ip), vehicle: Klucel (hydroxypropylcellulose) (HPC)): 95 % of control | T/C (dose: 400.0 mg/kg/injection, schedule: Q01DX009 (ip), vehicle: saline): 101 % of control | T/C (dose: 400.0 mg/kg/injection, schedule: Q04DX003 (ip), vehicle: Klucel (hydroxypropylcellulose) (HPC)): 97 % of control

Nc1ccccc1-c1ccccc1
T/C (dose: 75.0 mg/kg/injection, schedule: Q01DX001 (ip), vehicle: saline): 112 % of control

COC(=O)c1cccc(Cl)c1-c1c(Cl)cccc1C(=O)OC
T/C (dose: 100.0 mg/kg/injection, schedule: Q04DX002 (ip), vehicle: Klucel (hydroxypropylcellulose) (HPC)): 96 % of control | T/C (dose: 200.0 mg/kg/injection, schedule: Q04DX002 (ip), vehicle: Klucel (hydroxypropylcellulose) (HPC)): 108 % of control | T/C (dose: 400.0 mg/kg/injection, schedule: Q04DX002 (ip), vehicle: Klucel (hydroxypropylcellulose) (HPC)): 92 % of control

CC1=CC23C(COC(=O)C24CO4)C(C(=O)O)=CC3C1C (stereo not given) (tested in a mixture with another compound)
T/C (dose: 1.2 mg/kg/injection, schedule: Q01DX001 (ip), vehicle: saline): 101 % of control | T/C (dose: 2.5 mg/kg/injection, schedule: Q01DX001 (ip), vehicle: saline): 100 % of control

O=[N+]([O-])c1ccccc1N=Cc1ccccc1O.[Co]
T/C (dose: 100.0 mg/kg/injection, schedule: Q01DX001 (ip), vehicle: other): 98 % of control | T/C (dose: 200.0 mg/kg/injection, schedule: Q01DX001 (ip), vehicle: other): 104 % of control

O=C1NC(=O)C(CO)(c2ccccc2)N1 (stereo not given)
T/C (dose: 12.5 mg/kg/injection, schedule: Q04DX003 (ip), vehicle: saline): 110 % of control | T/C [1]: 103 % of control | T/C [2]: 100 % of control | T/C (dose: 100.0 mg/kg/injection, schedule: Q04DX003 (ip), vehicle: saline): 94 % of control | T/C (dose: 200.0 mg/kg/injection, schedule: Q04DX003 (ip), vehicle: saline): 97 % of control | T/C (dose: 400.0 mg/kg/injection, schedule: Q04DX003 (ip), vehicle: saline): 100 % of control

CN1CCN=C1c1ccc(NC(=O)Nc2ccc(NC(=O)Nc3ccc(C4=NCCN4C)cc3)cc2)cc1
T/C (dose: 6.5 mg/kg/injection, schedule: Q01DX009 (ip), vehicle: other): 108 % of control | T/C (dose: 10.0 mg/kg/injection, schedule: Q01DX009 (ip), vehicle: other): 105 % of control | T/C (dose: 15.0 mg/kg/injection, schedule: Q01DX009 (ip), vehicle: other): 118 % of control | T/C (dose: 22.0 mg/kg/injection, schedule: Q01DX009 (ip), vehicle: other): 118 % of control | T/C (dose: 33.0 mg/kg/injection, schedule: Q01DX009 (ip), vehicle: other): 162 % of control | T/C (dose: 50.0 mg/kg/injection, schedule: Q01DX009 (ip), vehicle: other): 227 % of control | T/C (dose: 50.0 mg/kg/injection, schedule: Q01DX009 (ip), vehicle: saline): 191 % of control | T/C (dose: 75.0 mg/kg/injection, schedule: Q01DX001 (ip), vehicle: other): 109 % of control | T/C (dose: 75.0 mg/kg/injection, schedule: Q01DX009 (ip), vehicle: other): 204 % of control | T/C (dose: 75.0 mg/kg/injection, schedule: Q01DX009 (ip), vehicle: saline): 191 % of control | T/C (dose: 112.0 mg/kg/injection, schedule: Q01DX009 (ip), vehicle: other): 111 % of control | T/C (dose: 112.0 mg/kg/injection, schedule: Q01DX009 (ip), vehicle: saline): 197 % of control | T/C (dose: 150.0 mg/kg/injection, schedule: Q01DX001 (ip), vehicle: other): 124 % of control

COc1ccc(CN2CCCN(Cc3ccc(OC)cc3OC)C2c2ccc(N(CCCl)CCCl)cc2)c(OC)c1
T/C (dose: 50.0 mg/kg/injection, schedule: Q01DX001 (ip), vehicle: carboxymethylcellulose (CMC)): 106 % of control | T/C (dose: 100.0 mg/kg/injection, schedule: Q01DX001 (ip), vehicle: carboxymethylcellulose (CMC)): 101 % of control | T/C (dose: 200.0 mg/kg/injection, schedule: Q01DX001 (ip), vehicle: carboxymethylcellulose (CMC)): 115 % of control | T/C (dose: 400.0 mg/kg/injection, schedule: Q01DX001 (ip), vehicle: carboxymethylcellulose (CMC)): 106 % of control

NNC(=O)CNc1ccc(F)c(Cl)c1
T/C (dose: 25.0 mg/kg/injection, schedule: Q04DX002 (ip), vehicle: saline + alcohol): 113 % of control | T/C (dose: 50.0 mg/kg/injection, schedule: Q04DX002 (ip), vehicle: saline + alcohol): 95 % of control | T/C (dose: 100.0 mg/kg/injection, schedule: Q04DX002 (ip), vehicle: saline + alcohol): 98 % of control and 123 % of control

Cn1c(=O)c2[nH]c(-c3ccc([N+](=O)[O-])cc3)nc2n(C)c1=O
T/C (dose: 50.0 mg/kg/injection, schedule: Q01DX001 (ip), vehicle: saline): 98 % of control | T/C (dose: 100.0 mg/kg/injection, schedule: Q01DX001 (ip), vehicle: saline): 93 % of control | T/C (dose: 200.0 mg/kg/injection, schedule: Q01DX001 (ip), vehicle: saline): 96 % of control | T/C (dose: 400.0 mg/kg/injection, schedule: Q01DX001 (ip), vehicle: saline): 93 % of control

CC(=O)Oc1ccc(Cl)cc1
T/C (dose: 100.0 mg/kg/injection, schedule: Q01DX009 (ip), vehicle: saline with Tween-80): 97 % of control | T/C (dose: 100.0 mg/kg/injection, schedule: Q04DX003 (ip), vehicle: saline with Tween-80): 108 % of control | T/C (dose: 200.0 mg/kg/injection, schedule: Q01DX009 (ip), vehicle: saline with Tween-80): 103 % of control | T/C (dose: 200.0 mg/kg/injection, schedule: Q04DX003 (ip), vehicle: saline with Tween-80): 97 % of control | T/C (dose: 400.0 mg/kg/injection, schedule: Q04DX003 (ip), vehicle: saline with Tween-80): 105 % of control

CC(C)C[As](=O)(O)CC(C)C
T/C [1]: 104 % of control | T/C [2]: 109 % of control

COc1ccc2c(c1)CCCC2CC(=O)c1ccccc1 (stereo not given)
T/C (dose: 50.0 mg/kg/injection, schedule: Q01DX009 (ip), vehicle: acetone): 98 % of control | T/C (dose: 100.0 mg/kg/injection, schedule: Q01DX009 (ip), vehicle: acetone): 95 % of control | T/C (dose: 100.0 mg/kg/injection, schedule: Q04DX003 (ip), vehicle: acetone): 86 % of control | T/C (dose: 198.0 mg/kg/injection, schedule: Q01DX009 (ip), vehicle: other): 107 % of control | T/C (dose: 200.0 mg/kg/injection, schedule: Q01DX009 (ip), vehicle: acetone): 98 % of control | T/C (dose: 200.0 mg/kg/injection, schedule: Q04DX003 (ip), vehicle: acetone): 87 % of control | T/C (dose: 300.0 mg/kg/injection, schedule: Q01DX009 (ip), vehicle: other): 104 % of control

O=C(c1ccccc1)C1CSS(=O)(=O)C1c1ccccc1 (stereo not given)
T/C (dose: 100.0 mg/kg/injection, schedule: Q01DX001 (ip), vehicle: Klucel (hydroxypropylcellulose) (HPC)): 97 % of control | T/C (dose: 200.0 mg/kg/injection, schedule: Q01DX001 (ip), vehicle: Klucel (hydroxypropylcellulose) (HPC)): 99 % of control | T/C (dose: 400.0 mg/kg/injection, schedule: Q01DX001 (ip), vehicle: Klucel (hydroxypropylcellulose) (HPC)): 92 % of control
